Laboratory results as given in ChEMBL document CHEMBL1155740, “Dicerandrols, new antibiotic and cytotoxic dimers produced by the fungus Phomopsis longicolla isolated from an endangered mint” (2001).
Calls of active or inactive are those of the source. The calls are words filed in the database; no cut-off is given here.

How the values were obtained:
Saccharomyces cerevisiae = test: Antifungal activity against Saccharomyces cerevisiae at 300 ug/disk; format: functional, organism-based
Geotrichum candidum = test: Antifungal activity against Geotrichum candidum at 300 ug/disk; format: functional, organism-based
Staphylococcus aureus [1] = test: Antibacterial activity against Staphylococcus aureus at 100 ug/disk after overnight incubation by agar diffusion method; format: functional; settings: read-out: IZ
Bacillus subtilis [2] = test: Antibacterial activity against Bacillus subtilis at 100 ug/disk after overnight incubation by agar diffusion method; format: functional; settings: read-out: IZ
HCT-116 = test: Cytotoxicity against human HCT116 cells after 72 hrs; format: functional
A549 = test: Cytotoxicity against human A549 cells after 72 hrs; format: functional
Bacillus subtilis [3] = test: Antibacterial activity against Bacillus subtilis at 30 ug after overnight incubation by agar diffusion method; format: functional, organism-based
Staphylococcus aureus [4] = test: Antibacterial activity against Staphylococcus aureus at 30 ug after overnight incubation by agar diffusion method; format: functional; settings: read-out: IZ

| Compound | Activity (Saccharomyces cerevisiae) | Activity (Geotrichum candidum) | zone of inhibition at 100 µg/disc (Staphylococcus aureus [1]) | zone of inhibition at 100 µg/disc (Bacillus subtilis [2]) | IC100 (HCT-116) | IC100 (A549) | inhibition zone (IZ) (Bacillus subtilis [3]) | zone of inhibition at 30 µg/disc (Staphylococcus aureus [4]) |
| --- | --- | --- | --- | --- | --- | --- | --- | --- |
| CC(=O)O[C@@H]1[C@H](C)CC(O)=C2C(=O)c3c(ccc(-c4ccc5c(c4O)C(=O)C4=C(O)C[C@@H](C)[C@@H](OC(C)=O)[C@@]4(CO)O5)c3O)O[C@@]21CO [DICERANDROL A] | inactive | inactive | 10.8 mm | 11 mm | 7 µg/mL | 7 µg/mL |  |  |
| CC(=O)OC[C@]12Oc3ccc(-c4ccc5c(c4O)C(=O)C4=C(O)C[C@@H](C)[C@@H](OC(C)=O)[C@@]4(CO)O5)c(O)c3C(=O)C1=C(O)C[C@@H](C)[C@H]2OC(C)=O [DICERANDROL B] | inactive | inactive | 8.5 mm | 9.5 mm | 1.8 µg/mL | 1.8 µg/mL |  |  |
| CC(=O)OC[C@]12Oc3ccc(-c4ccc5c(c4O)C(=O)C4=C(O)C[C@@H](C)[C@@H](OC(C)=O)[C@@]4(COC(C)=O)O5)c(O)c3C(=O)C1=C(O)C[C@@H](C)[C@H]2OC(C)=O [DICERANDROL C] | inactive | inactive | 7 mm | 8 mm | 7 µg/mL | 1.8 µg/mL |  |  |
| NYSTATIN |  |  |  |  |  |  | 12 mm |  |
| COc1cc([C@@H]2c3cc4c(cc3[C@@H](O[C@@H]3O[C@@H]5CO[C@@H](C)O[C@H]5[C@H](O)[C@H]3O)[C@H]3COC(=O)[C@H]23)OCO4)cc(OC)c1O [ETOPOSIDE] |  |  |  |  | 125 µg/mL | 30 µg/mL |  |  |
| NC[C@@H]1O[C@H](O[C@H]2[C@@H](O)[C@H](O[C@@H]3[C@@H](O)[C@H](N)C[C@H](N)[C@H]3O[C@H]3O[C@H](CN)[C@@H](O)[C@H](O)[C@H]3N)O[C@@H]2CO)[C@H](N)[C@@H](O)[C@@H]1O [FRAMYCETIN] |  |  |  |  |  |  |  | 9 mm |
